{
  "source": "patent US20030100034A1",
  "about": "“9136, a human aldehyde dehydrogenase family member and uses therefor” (Millennium Pharmaceuticals, Inc., priority 2001, published 2003)",
  "system": "9136 in NCI-H125 cells",
  "test": "9136 expression after 4HT induction of p53ER in NCI-H125 cells",
  "type": "cell-based, human",
  "description": "Total RNA was prepared from various human tissues by a single step extraction method using RNA STAT-60 according to the manufacturer's instructions (TelTest, Inc). Each RNA preparation was treated with DNase I (Ambion) at 37° C. for 1 hour. DNAse I treatment was determined to be complete if the sample required at least 38 PCR amplification cycles to reach a threshold level of fluorescence using β-2 microglobulin as an internal amplicon reference. The integrity of the RNA samples following DNase I treatment was confirmed by agarose gel electrophoresis and ethidium bromide staining. After phenol extraction cDNA was prepared from the sample using the SUPERSCRIPT™ Choice System following the manufacturer's instructions (GibcoBRL). A negative control of RNA without reverse transcriptase was mock reverse transcribed for each RNA sample. Human 9136 expression was measured by TaqMan® & quantitative PCR (Perkin Elmer Applied Biosystems) in cDNA prepared from a variety of normal and diseased (e.g., cancerous) human tissues or cell lines. Probes were designed by PrimerExpress software (PE Biosystems) based on the sequence of the human 9136 gene. Each human 9136 gene probe was labeled using FAM (6-carboxyfluorescein), and the β2-microglobulin reference probe was labeled with a different fluorescent dye, VIC. The differential labeling of the target gene and internal reference gene thus enabled measurement in same well. Forward and reverse primers and the probes for both β2-microglobulin and target gene were added to the TaqMan® Universal PCR Master Mix (PE Applied Biosystems). Although the final concentration of primer and probe could vary, each was internally consistent within a given experiment. A typical experiment contained 200 nM of forward and reverse primers plus 100 nM probe for β-2 microglobulin and 600 nM forward and reverse primers plus 200 nM probe for the target gene. TaqMan matrix experiments were carried out on an ABI PRISM 7700 Sequence Detection System (PE Applied Biosystems). The thermal cycler conditions were as follows: hold for 2 min at 50° C. and 10 min at 95° C., followed by two-step PCR for 40 cycles of 95° C. for 15 sec followed by 60° C. for 1 min.\nThe following method was used to quantitatively calculate human 9136 gene expression in the various tissues relative to β-2 microglobulin expression in the same tissue. The threshold cycle (Ct) value is defined as the cycle at which a statistically significant increase in fluorescence is detected. A lower Ct value is indicative of a higher mRNA concentration. The Ct value of the human 9136 gene is normalized by subtracting the Ct value of the β-2 microglobulin gene to obtain a ΔCt value using the following formula: ΔCt=[…]−Ctβ-2 microglobulin. Expression is then calibrated against a cDNA sample showing a comparatively low level of expression of the human 9136 gene. The ΔCt value for the calibrator sample is then subtracted from ΔCt for each tissue sample according to the following formula: ΔΔCt=ΔCt-sample−ΔCt-calibrator. Relative expression is then calculated using the arithmetic formula given by 2^−ΔΔCt. Relative expression levels of the target human 9136 gene in each of the tissues tested is then graphically represented as discussed in more detail below.\nIn addition, a study of the 9136 gene expression levels, with or without introduction of p53 expression, was carried out in several carcinoma cell lines. The p53 tumor suppressor gene has been the subject of intense study for a number of years. […] One of those identified genes is 9136, which, as mentioned earlier, is the human ALDH6 gene.",
  "data": [
    {"smiles": "CC/C(=C(\\c1ccc(O)cc1)c1ccc(OCCN(C)C)cc1)c1ccccc1", "note": "[4HT]", "values": [
      {"measurement": "9136 Expression", "setting": "0 hr post-4HT induction", "value": 5.82},
      {"measurement": "9136 Expression", "setting": "5 min post-4HT induction", "value": 6.29},
      {"measurement": "9136 Expression", "setting": "20 min post-4HT induction", "value": 5.64},
      {"measurement": "9136 Expression", "setting": "1 hr post-4HT induction", "value": 5.60},
      {"measurement": "9136 Expression", "setting": "3 hr post-4HT induction", "value": 5.83},
      {"measurement": "9136 Expression", "setting": "9 hr post-4HT induction", "value": 5.10},
      {"measurement": "9136 Expression", "setting": "24 hr post-4HT induction", "value": 3.1},
      {"measurement": "9136 Expression", "setting": "48 hr post-4HT induction", "value": 3.03}
    ]}
  ]
}
